Patent US9060970B2, “Bridge-helix cap: target and method for inhibition of bacterial RNA polymerase” (priority 2011, dated 2015)
“Also recorded” adds a separate entry of the source. Starred links: 1 amine or outer side, 2 acyl side, 3 side chain; linkers in the order of their positions; H or OH if unused. Positions of bridges follow the written chain, without caps; N, C: chain ends. Non-standard residues stand in square brackets, D forms with d. Residues, ends and D or L forms follow the SMILES beside them. *: point of attachment. X2 = C[C@H](Oc1ccc([C@H](N[*:1])C(=O)[*:2])cc1)[C@@]1(/C=C/C(=O)[*:3])CO1; X1 = CC(C)[C@H](O)[C@H](C)C(=O)*; aIle = CC[C@@H](C)[C@H](N)C(=O)O; dNMeF = CN[C@H](Cc1ccccc1)C(=O)O; aThr = C[C@H](O)[C@H](N)C(=O)O

How the values were obtained:
[1] = tested on: RNA synthesis in E. coli D21f2tolC; assay: RNA synthesis in vivo ([14C]-uracil incorporation, macromolecular synthesis assay); assay type: cell-based, Escherichia coli; conditions: Sal at two times MIC; 5, 10, 15 min after addition; effect seen at earliest time point (5 min)
Description: (§1) Sal Inhibits RNA Synthesis in vivo. To determine whether Sal inhibits RNAP in vivo, effects of Sal on RNA synthesis in vivo were assayed, and, as a control, effects of Sal on DNA synthesis in vivo were assayed. Sal was added to cultures of E. coli D21f2tolC growing in media containing either a radioactively labeled RNA-synthesis precursor ([^14C]-uracil) or a radioactively labeled DNA synthesis precursor ([^14C]-thymidine); aliquots were removed and mixed with trichloroacetic acid (TCA) 0, 5, 10, and 15 min thereafter to lyse cells and precipitate nucleic acids; TCA-precipitated nucleic acids were collected by vacuum filtration; and radioactivity in TCA-precipitated nucleic acids was quantified (FIG. 2A). […] The effect was specific; addition of Sal to bacterial cultures had no effect on DNA synthesis (FIG. 2B, right panel). It is concluded that Sal inhibits RNA synthesis in vivo, and it is inferred that Sal inhibits RNAP in vivo.
(§2) Measurement of Nucleic Acid Synthesis in vivo. Macromolecular synthesis assays were performed essentially as in reference 5. […] Radioactivity was quantified using a Typhoon Variable Mode Imager and ImageQuant v5 (Molecular Dynamics, Inc.).

human RNAPs = conditions: human RNAP I, RNAP II, RNAP III; reference 4; cited from earlier work
Streptococcus pneumoniae = conditions: references 1, 2; cited from earlier work
[2] = tested on: DNA synthesis in E. coli D21f2tolC; assay: DNA synthesis in vivo ([14C]-thymidine incorporation, macromolecular synthesis assay); assay type: cell-based, Escherichia coli; conditions: Sal at two times MIC; 5, 10, 15 min after addition
Description: as §1, §2

[3] = tested on: Derivatives of E. coli D21f2tolC containing rifamycin-resistant rpoB mutations; assay: Broth microdilution cross-resistance of rifamycin-resistant mutants to Sal; assay type: cell-based, Escherichia coli
S. pyogenes = conditions: references 1, 2; cited from earlier work
[4] = biological target: bacterial RNA polymerase (RNAP) (Escherichia coli, UniProt P0A8T7+P0A8V2); conditions: in vitro; reference 4; read-out: IC50, inhibition of bacterial RNA polymerase in vitro; cited from earlier work
Chain of bacterial RNA polymerase (RNAP) (P0A8V2 whole entry): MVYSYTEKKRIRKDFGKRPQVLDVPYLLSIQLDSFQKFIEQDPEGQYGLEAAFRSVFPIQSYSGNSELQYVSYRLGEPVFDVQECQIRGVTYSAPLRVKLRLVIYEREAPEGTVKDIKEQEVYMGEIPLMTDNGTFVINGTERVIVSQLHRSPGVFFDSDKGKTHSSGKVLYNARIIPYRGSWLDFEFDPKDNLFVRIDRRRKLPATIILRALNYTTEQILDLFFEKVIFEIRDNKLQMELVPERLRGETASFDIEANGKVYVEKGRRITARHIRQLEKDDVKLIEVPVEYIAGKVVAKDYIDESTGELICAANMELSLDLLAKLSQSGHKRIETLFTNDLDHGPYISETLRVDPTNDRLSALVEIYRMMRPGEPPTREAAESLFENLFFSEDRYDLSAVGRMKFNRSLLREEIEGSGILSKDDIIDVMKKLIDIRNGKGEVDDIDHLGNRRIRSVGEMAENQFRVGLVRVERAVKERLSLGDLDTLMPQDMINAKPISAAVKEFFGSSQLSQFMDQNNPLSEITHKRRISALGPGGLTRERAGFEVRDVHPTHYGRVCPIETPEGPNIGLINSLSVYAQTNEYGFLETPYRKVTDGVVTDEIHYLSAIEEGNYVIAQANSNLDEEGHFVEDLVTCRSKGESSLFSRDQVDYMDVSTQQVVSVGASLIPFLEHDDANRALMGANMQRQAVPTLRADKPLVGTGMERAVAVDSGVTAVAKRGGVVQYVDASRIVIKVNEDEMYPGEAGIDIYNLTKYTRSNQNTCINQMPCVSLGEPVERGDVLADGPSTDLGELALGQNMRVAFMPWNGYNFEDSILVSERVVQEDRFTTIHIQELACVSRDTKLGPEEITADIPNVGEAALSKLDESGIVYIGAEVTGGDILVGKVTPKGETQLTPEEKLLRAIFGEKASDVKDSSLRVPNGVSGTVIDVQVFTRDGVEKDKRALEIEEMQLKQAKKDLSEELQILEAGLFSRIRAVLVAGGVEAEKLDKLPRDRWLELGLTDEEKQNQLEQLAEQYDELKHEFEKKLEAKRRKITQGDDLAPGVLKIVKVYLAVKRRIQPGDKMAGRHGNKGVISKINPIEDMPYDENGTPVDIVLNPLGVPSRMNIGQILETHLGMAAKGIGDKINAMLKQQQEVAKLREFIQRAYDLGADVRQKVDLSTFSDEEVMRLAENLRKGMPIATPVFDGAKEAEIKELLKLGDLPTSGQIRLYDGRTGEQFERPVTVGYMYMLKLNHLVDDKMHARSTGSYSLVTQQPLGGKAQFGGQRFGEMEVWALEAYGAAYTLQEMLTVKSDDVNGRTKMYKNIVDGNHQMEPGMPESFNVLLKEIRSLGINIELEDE
Chain of bacterial RNA polymerase (RNAP) (P0A8T7 whole entry): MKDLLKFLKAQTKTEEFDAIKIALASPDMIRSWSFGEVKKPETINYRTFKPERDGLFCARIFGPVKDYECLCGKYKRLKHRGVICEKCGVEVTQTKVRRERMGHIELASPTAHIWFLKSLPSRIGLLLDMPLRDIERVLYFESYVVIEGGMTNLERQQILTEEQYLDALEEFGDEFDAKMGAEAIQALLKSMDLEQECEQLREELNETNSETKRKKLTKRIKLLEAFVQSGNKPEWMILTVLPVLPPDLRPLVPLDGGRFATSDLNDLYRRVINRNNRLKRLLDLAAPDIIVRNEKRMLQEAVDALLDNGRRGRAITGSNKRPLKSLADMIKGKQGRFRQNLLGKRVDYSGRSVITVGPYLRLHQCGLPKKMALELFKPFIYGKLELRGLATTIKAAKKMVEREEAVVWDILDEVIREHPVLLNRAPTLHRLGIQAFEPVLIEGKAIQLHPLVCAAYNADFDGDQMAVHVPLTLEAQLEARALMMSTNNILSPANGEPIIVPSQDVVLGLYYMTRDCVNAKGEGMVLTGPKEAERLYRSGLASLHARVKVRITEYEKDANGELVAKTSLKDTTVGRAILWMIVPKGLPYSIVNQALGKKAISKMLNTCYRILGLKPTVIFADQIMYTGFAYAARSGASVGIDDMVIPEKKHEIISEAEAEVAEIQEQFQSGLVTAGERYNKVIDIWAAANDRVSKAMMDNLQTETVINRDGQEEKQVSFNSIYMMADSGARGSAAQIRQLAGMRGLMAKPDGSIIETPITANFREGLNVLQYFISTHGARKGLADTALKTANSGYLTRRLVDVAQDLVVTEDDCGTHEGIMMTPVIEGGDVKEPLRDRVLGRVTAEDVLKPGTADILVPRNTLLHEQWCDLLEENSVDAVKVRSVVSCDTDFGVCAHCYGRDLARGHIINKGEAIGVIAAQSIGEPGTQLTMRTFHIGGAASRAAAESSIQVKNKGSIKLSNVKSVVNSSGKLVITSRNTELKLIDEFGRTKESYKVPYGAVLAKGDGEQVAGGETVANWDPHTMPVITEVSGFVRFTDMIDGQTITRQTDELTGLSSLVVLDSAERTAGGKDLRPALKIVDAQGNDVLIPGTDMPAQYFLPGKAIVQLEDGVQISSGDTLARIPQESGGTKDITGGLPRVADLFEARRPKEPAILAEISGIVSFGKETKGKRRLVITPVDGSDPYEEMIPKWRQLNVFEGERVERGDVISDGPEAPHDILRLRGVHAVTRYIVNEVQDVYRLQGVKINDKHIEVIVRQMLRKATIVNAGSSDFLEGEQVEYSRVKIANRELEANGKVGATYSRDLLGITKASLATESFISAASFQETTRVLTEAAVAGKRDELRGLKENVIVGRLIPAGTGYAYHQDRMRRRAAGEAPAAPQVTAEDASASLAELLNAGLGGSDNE
Chain of bacterial RNA polymerase (RNAP) (P0A7Z4 whole entry, further chain): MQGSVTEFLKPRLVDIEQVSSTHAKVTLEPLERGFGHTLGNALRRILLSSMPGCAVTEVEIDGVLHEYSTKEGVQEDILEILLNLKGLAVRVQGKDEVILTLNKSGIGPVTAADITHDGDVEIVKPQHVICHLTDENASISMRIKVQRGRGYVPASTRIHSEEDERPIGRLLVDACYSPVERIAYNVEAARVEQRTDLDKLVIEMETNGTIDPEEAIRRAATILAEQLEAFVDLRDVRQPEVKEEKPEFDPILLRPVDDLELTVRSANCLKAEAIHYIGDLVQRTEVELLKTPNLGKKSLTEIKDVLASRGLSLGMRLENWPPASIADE

CC[C@@H](C)[C@@H]1NC(=O)[C@H](NC(=O)[C@@H](C)[C@@H](O)C(C)C)[C@H](C)OC(=O)[C@H]2COC(=O)CNC(=O)/C=C/[C@@]3(CO3)[C@H](C)Oc3ccc(cc3)[C@H](NC1=O)C(=O)N(C)[C@H](Cc1ccccc1)C(=O)N[C@@H]([C@H](C)O)C(=O)N2 [Sal, salinamide A] (X1-[dT][aIle][X2][dNMeF][aThr][dS]; ester 1-C; linker 3-6 via G)
effect on RNA synthesis in vivo [1]: decreased immediately; also recorded: essentially stopped
inhibition of human RNAPs (human RNAPs): does not inhibit
antibacterial activity (Streptococcus pneumoniae): exhibits antibacterial activity
effect on DNA synthesis in vivo [2]: no effect
cross-resistance level (MIC/MICwild-type) ([3]; rifampin-resistant mutant rpoB (RNAP β subunit) 516 Asp→Val): 1
cross-resistance level (MIC/MICwild-type) ([3]; rifampin-resistant mutant rpoB (RNAP β subunit) 526 His→Asp): 1
cross-resistance level (MIC/MICwild-type) ([3]; rifampin-resistant mutant rpoB (RNAP β subunit) 526 His→Tyr): 1
cross-resistance level (MIC/MICwild-type) ([3]; rifampin-resistant mutant rpoB (RNAP β subunit) 531 Ser→Leu): 1
cross-resistance of rifamycin-resistant mutants (in words) ([3]; β Asp516→Val, His526→Asp, His526→Tyr, Ser531→Leu mutants (Table 5)): not cross-resistant; also recorded: no cross-resistance
antibacterial activity (S. pyogenes): exhibits antibacterial activity
IC50 [4]: 500 nM
